Five molecules from article PMC4201470, “THDP17 Decreases Ammonia Production through Glutaminase Inhibition. A New Drug for Hepatic Encephalopathy Therapy” (PLoS ONE, 2014) can be followed below.

The target of series [1] is T1, PAG (Rattus norvegicus, UniProt P13264).
T1 sequence (P13264 55-674): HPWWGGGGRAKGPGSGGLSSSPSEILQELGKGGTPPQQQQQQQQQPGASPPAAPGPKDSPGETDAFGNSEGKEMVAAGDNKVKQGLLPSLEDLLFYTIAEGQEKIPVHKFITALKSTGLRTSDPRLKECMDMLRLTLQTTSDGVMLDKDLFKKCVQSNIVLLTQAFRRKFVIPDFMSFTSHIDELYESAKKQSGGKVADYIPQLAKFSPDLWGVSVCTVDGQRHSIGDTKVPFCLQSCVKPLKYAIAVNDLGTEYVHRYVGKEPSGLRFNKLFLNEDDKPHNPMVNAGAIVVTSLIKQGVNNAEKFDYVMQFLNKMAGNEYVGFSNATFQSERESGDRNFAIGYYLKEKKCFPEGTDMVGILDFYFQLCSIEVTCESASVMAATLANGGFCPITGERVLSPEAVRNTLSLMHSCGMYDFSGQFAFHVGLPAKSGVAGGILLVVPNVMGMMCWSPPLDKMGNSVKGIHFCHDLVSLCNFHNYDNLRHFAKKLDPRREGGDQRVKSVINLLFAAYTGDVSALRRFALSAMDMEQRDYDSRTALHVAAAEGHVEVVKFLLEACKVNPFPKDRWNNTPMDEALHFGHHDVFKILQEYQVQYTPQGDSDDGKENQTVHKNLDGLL
The series is described as follows: In vitro PAG inhibition by drugs used in HE therapy. To be noted: for effect on PAG activity in vitro: 10 mM. The series is classed as biochemical. The procedure:
(§1) PAG inhibition analysis by different thiourea derivatives (THDP) was assayed in vitro, using the method of Heini for glutaminase activity determination, adapted to a microtiter procedure. This assay is based on the use of o-phthaldialdehyde/mercaptoethanol as a reagent for estimating ammonia released from glutamine. Briefly, 25 µl samples were added to 35 µl of a mixture of 150 mM potassium phosphate, 171 mM glutamine, 1 mM ammonium chloride, pH 8.0 and then incubated at 37°C for 45 min. The reaction was stopped by adding 10 µl 7% trichloroacetic acid, kept on ice for 15 min and centrifuged 5 min at 1000 × g. Aliquots of 5 µl/well were then mixed with 150 µl o-phthalaldehyde/mercaptoethanol reagent (14.4 ml 200 mM potassium phosphate, pH 7.4, 0.8 ml 72 mM mercaptoethanol in ethanol and 0.8 ml 186 mM o-phthaldialdehyde in ethanol). The samples were kept at room temperature in the dark and absorbance measured at 410 nm with a UV-Visible spectrophotometer (BioRad) after 45 min.
PAG activity inhibition was analyzed using 10 mM concentration. PAG activity in vitro was no affected by neomycin, lactitol and lactulose, rather, an increased activity was observed.

Series [2] has as its system glutaminase activity in Caco2 cells. The series can be described thus: Glutaminase inhibition by metformin in Caco2 cells. The class given is cell-based.
Description: 6-Diazo-5-oxo-L-norleucine (DON) (0–100 µM) was used as positive control.
Series [3] has as its system swine K-PAG (from kidney). The series is described as follows: In vitro optimised kinetic assay with increasing inhibitor concentrations. The series is classed as biochemical. The procedure: (§2) K-PAG activity was assayed, in presence and absence of the inhibitor; using isolated mitochondria from rat intestine and kidney, solubilized with 1% Triton X-100 as a source of glutaminase. Enzymatic activity was measured using a two-step assay as described by Lund. Protein concentration was determined following Bradford method using serum albumin as standard.
First, increasing concentration of inhibitors (ranging from 1 µM to 10 mM) were added to standard and optimized enzymatic assay conditions with 99 mmol/l glutamine, 150 mmol/l phosphate and 100 µg K-PAG (Figure 1).

The test system of series [4] is C57BL/6 mice. The series is described as follows: Acute toxicity, oral administration to 12 h fasted mice. The class given is in vivo. To be noted: for Deaths before 6 h / Deaths before 12 h: oral, N=3. The procedure: (§3) Lethal dose was determined by oral administration of the compounds to C57BL/6 mice. Thirty mice were supplied by the Centre of Production and Experimental animal of Espartinas, University of Seville, Spain. The animals were housed ten per cage, and maintained at constant room temperature (22°C ±2°C), with artificial light-dark cycle of 12 h and a relative humidity of 65%−70%, and free access to food and water during 2 weeks for acclimation. All animal procedures were performed with approval from the Sevilla University Animal Ethics Committees, under the guidelines of the directive 86/609/CEE of the European Union. Two assays in different conditions were performed. […] They were sacrificed 24 h latter and a macroscopic analysis of the tissues (lungs, heart, liver, stomach and intestine) was performed. […] In this case, mice were sacrificed 24 or 72 h latter and the same macroscopic analysis was performed.
(§4) The undiluted compound has low systemic toxicity but a marked local necrotizing and inflammatory effect when it is administered orally. […] There were few fluctuations in histopathological values but no changes appear to be drug-related or of significance. […] Therefore, we repeat the assay using feed animals.

Series [5] addresses T2, glutaminase obtained from both kidney and intestine mitochondria (K-PAG) (Rattus norvegicus, UniProt P13264).
T2 construct: an enriched preparation of glutaminase obtained from both kidney and intestine mitochondria; from tissue; host or cells: rat kidney and intestine mitochondria, solubilised with 1% Triton X-100
T2 sequence (P13264 55-674): T1 sequence (P13264 55-674)
The series can be described thus: In vitro inhibition screening of glutaminase activity (Heini method, ammonia released from glutamine). The series is classed as biochemical. The procedure:
as §1, with “Aliquots of 5 µl/well were then mixed with 150 µl o-phthalaldehyde/mercaptoethanol reagent (14.4 ml 200 mM potassium phosphate, pH 7.4, 0.8 ml 72 mM mercaptoethanol in ethanol and 0.8 ml 186 mM o-phthaldialdehyde in ethanol).” left out
as §2
The first group analysed in this work is integrated by a small molecule compounds library derived from thiourea. […]

Series [6] deals with PAG. The series is described as follows: PAG kinetic parameters in absence and presence of THDP-17 (double reciprocal plot). The series is classed as biochemical, swine. The procedure: as §2
Figure 3 THDP17 inhibition kinetics. A lineal double reciprocal plot (1/v against 1/[Gln]) in absence (0) and presence (10 µM) of the inhibitor is shown. […] All experiments were performed in triplicates; p>0.05.

The next series has as its system Caco-2 cells. The series can be described thus: Cytotoxicity assay in Caco-2 cells after 24 h exposure. The class given is cell-based. To be noted: Caco-2, 24 h exposure. As to the method:
Regression analysis of dose-response curves and calculation of IC50 were done according to standard procedure using appropriated software.
Acute toxicity test in animals is typically the first step in the evaluation of the effects of a chemical compound, and its primary purpose is to provide information on potential health hazards that may result from a short-term exposure. […] In the present work, cytotoxicity of a 24 h-exposure to selected inhibitors was evaluated in Caco-2 cells using the MTT method developed by Mosmann and modified by Denizot and Lang.

Series [7] concerns glutaminase activity (PAG) in Caco-2 cells. The series can be described thus: Inhibition assay in cell culture (glutamate produced from glutamine, HPLC). The class given is cell-based. From the text:
Results are shown on Figure 4.

Series [8] deals with C57BL/6 mice. The series is described as follows: Acute toxicity, oral administration to mice with free access to food and water. The series is classed as in vivo. Conditions: for Deaths before 6 h / Deaths before 12 h / Deaths before 24 h: N=4. The procedure: as §3, §4
The mark [9] stands for this setting: fed mice, oral, 50 mg/Kg in DMSO.
Where [10] appears, read: fed mice, oral, 300 mg/Kg in DMSO.

Entries after “also recorded” stand apart in the source; their conditions may differ. Marks after values point to notes of the source that are not given here.

`OC[C@@H](O)[C@@H](O[C@@H]1O[C@H](CO)[C@H](O)[C@H](O)[C@H]1O)[C@H](O)[C@@H](O)CO` [lactitol]: on PAG [1], the “effect on PAG activity in vitro” value is “no affected”.
Still for that read-out and setting: the same measure for neomycin: “no affected”.
The term inhibition denotes the drop in the measured response relative to a control, in per cent. Take `CN(C)C(=N)N=C(N)N` [metformin]: the inhibition kinetics entry on PAG [1] (Dixon plot) was “competitive inhibition kinetics”. Further, on PAG [1] (read-out: PAG inhibition), the inhibition at 10000 µM was found to be 17.5% and the inhibition at 100000 µM came out at 68%. Besides, the “inhibition rates at higher concentrations” value in series [2] (Caco2, 50, 100 and 200 mM) is listed as “did not yield higher inhibition rates”. In series [2] (Homo sapiens, Caco-2, 72 h), this molecule yielded an inhibition at 20000 µM of 24%.
With `OC[C@H]1O[C@@H](O[C@@H]2[C@@H](CO)OC(O)(CO)[C@H]2O)[C@H](O)[C@@H](O)[C@H]1O` (mixture of isomers) [lactulose], the “effect on PAG activity in vitro” value on PAG [1] was “no affected”.
The IC50 is the midpoint of a concentration-inhibition curve. The Vmax is the rate approached at saturating substrate. Consider “N-(3-methyl-3-butenyl)-N′-phenylthiourea [THDP-17]”, for which the IC50 in series [3] (99 mmol/l glutamine, 150 mmol/l phosphate, 100 µg K-PAG) was determined as 3.9 ± 0.1 µM. The “extent of PAG inhibition at low milimolar concentrations” value in [3] (low milimolar concentrations, plateau) was “inhibits PAG activity partially”. Besides, the “macroscopic findings in the gastrointestinal tract” value in the series with C57BL/6 mice [4] (also seen with DMSO vehicle alone) was “gastrointestinal ulcers and duodenum bleeding”. Besides, the “histopathological damages in lungs, heart or liver” value with C57BL/6 mice [4] (compared to DMSO alone) is on record as “No essential or histopathological damages”. Further, the “Deaths before 6 h” value in the series on C57BL/6 mice [4] (50 mg/Kg in DMSO) is 1; in the series with C57BL/6 mice [4] (300 mg/Kg in DMSO), 1; in the series with C57BL/6 mice [4] (2000 mg/Kg in DMSO), 2; with C57BL/6 mice [8] (setting [9]), 0; in the series with C57BL/6 mice [8] (fed mice, oral, 300 mg/Kg in DMSO, animal without water), 1 ^*. Besides, the “Deaths before 12 h” value in the series on C57BL/6 mice [4] (50 mg/Kg in DMSO) was determined as 1; in the series with C57BL/6 mice [4] (300 mg/Kg in DMSO), 1; in the series with C57BL/6 mice [4] (2000 mg/Kg in DMSO) it was 1; in the series with C57BL/6 mice [8] (setting [9]) it was 0; in the series with C57BL/6 mice [8] (setting [10]), 0. For the same molecule, the “inhibition of intestinal glutaminase activity” value in series [5] (THDP-17 10 µM) was found to be 57.4±6.7%. Also, in series [5] (thiourea library screening), the “inhibition of K-PAG activity (screening result)” value was “could inhibit K-PAG activity”. In addition, the inhibition model result in the series on PAG [6] (double reciprocal plot) was “not-pure-uncompetitive inhibitor; also recorded: uncompetitive inhibition”. Besides, the Vmax in the series with PAG [6] (with THDP-17 10 µM) was 384.62 µmol/min. Also, the Vmax-ap in the series on PAG [6] (with THDP-17 10 µM, without inhibitor 0.67 mmol min^-1) was 0.38 mmol/min. Moreover, the “cytotoxicity (cell viability)” value in the series on Caco-2 cells is “did not show cytotoxicity”. The “concentration at which PAG inhibition in cell cultures is effective” value in series [7] (Caco-2) is given as “higher than 5 µM”. The “PAG inhibition in cell cultures” value worked out at 18±2.1% in [7] (Caco-2, 20 µM) and 46±3.4% in series [7] (Caco-2, 100 µM). The “deaths during the experimental period” value with C57BL/6 mice [8] (fed mice) is reported as “no deaths were observed”. In addition, the macroscopic organs analysis result in the series on C57BL/6 mice [8] (fed mice sacrificed at 24 and 72 h, less pronounced than in fasted group) is “gastrointestinal ulcers and duodenum bleeding”. In addition, the “Deaths before 24 h” value with C57BL/6 mice [8] (setting [9]) and in the series on C57BL/6 mice [8] (setting [10]) was 0 in each case. Also, the “toxicity in vivo (conclusion)” value in the series on C57BL/6 mice [8] (mice, oral) is listed as “no toxic in vivo”.
